Test results reported in US20100074881A1, “MULTIPLE NEBULIZER SYSTEMS” (PARION SCIENCES, Inc., priority 2008, published 2010).

How the values were obtained:
[1] = system: airways; conditions: concurrent use of hypertonic saline and amiloride; cited from earlier work
[2] = system: airway surface; assay: Airway surface hydration with PS552-02 and hypertonic saline; conditions: PS552-02 together with hypertonic saline (3-7%)
Excerpt: (§1) A specific example of an application for the dual-nebulizer technology is illustrated in the following example in which the desired co-delivery of two therapeutic agents that act synergistically is not possible due to the incompatibility of these agents in a single formulation. […] However, due to the poor solubility of PS552-02 in NaCl solutions, these two agents cannot be formulated together. Currently, administration of PS552-02 and hypertonic saline would require two independent nebulizer treatments. However, a dual nebulizer system alleviates this issue by allowing both agents to be simultaneously delivered. Compound PS552-02 is represented by the formula: […]

[3] = Solubility of PS552-02 in NaCl solutions; format: physicochemical
Excerpt: as §1

solubility in NaCl solutions [3]	SMILES	effect on water permeability of airways [1]	airway surface hydration [2]
–	N=C(N)NC(=O)c1nc(Cl)c(N)nc1N [Amiloride, amiloride]	block the water permeability of airways	–
poor	N=C(NCCCCc1ccc(OCC(O)CO)cc1)NC(=O)c1nc(Cl)c(N)nc1N (stereo not drawn) [PS552-02]	–	synergistically enhance
